Consider 33 compounds from patent publication US10669242B2 (priority 2016, dated 2020).

For the first experiment, the target named is T1, recombinant glucosyltransferase domain of C. difficile Toxin B/TcdB (Clostridioides difficile, UniProt P18177).
T1 construct: 6-His (C); purchased R&D Systems 6246-GT
T1 sequence (P18177 1-543): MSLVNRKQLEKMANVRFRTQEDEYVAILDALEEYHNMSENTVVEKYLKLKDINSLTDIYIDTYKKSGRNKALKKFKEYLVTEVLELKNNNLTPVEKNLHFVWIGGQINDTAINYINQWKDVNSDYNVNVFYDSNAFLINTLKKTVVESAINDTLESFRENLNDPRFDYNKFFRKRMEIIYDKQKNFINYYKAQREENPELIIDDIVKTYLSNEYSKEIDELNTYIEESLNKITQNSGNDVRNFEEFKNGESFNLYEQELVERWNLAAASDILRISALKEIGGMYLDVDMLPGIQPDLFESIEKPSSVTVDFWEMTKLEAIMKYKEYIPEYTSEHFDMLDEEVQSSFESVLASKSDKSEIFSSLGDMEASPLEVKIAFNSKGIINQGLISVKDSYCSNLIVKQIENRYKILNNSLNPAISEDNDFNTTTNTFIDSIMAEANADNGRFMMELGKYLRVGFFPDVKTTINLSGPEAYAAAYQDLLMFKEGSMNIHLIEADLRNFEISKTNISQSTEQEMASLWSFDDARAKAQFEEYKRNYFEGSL
Put plainly: biochemical.
Conditions: not given
As for `CN1CCC(CC(=O)Nc2cc(CN3C(=O)c4ccc(Cl)cc4NC(=O)[C@H]3Cc3ccccn3)ccc2C(=O)O)CC1` [Example 22l], the IC50 lay in the range of 100 to 999 nM. On the same count and under the same terms, next, `O=C(Nc1ccccn1)c1ccc(CN2C(=O)c3ccc(Cl)cc3NC(=O)C2CC2CCOCC2)cc1` (stereo not drawn) [Example 35e]: 1000 to 10000 nM; `O=C(CO)Nc1ccc(CN2C(=O)c3ccc(Cl)cc3NC(=O)[C@H]2Cc2ccccn2)cc1` [Example 27b]: 100 to 999 nM.

In the case of `CNC(=O)c1ccc(-c2cc(CN3C(=O)c4ccc(Cl)cc4NC(=O)[C@H]3Cc3ccccn3)ccc2C(=O)O)cc1` [Example 8o, (R)-5-((8-chloro-2,5-dioxo-3-(pyridin-2-ylmethyl)-2,3-dihydro-1H-benzo[e][1,4]diazepin-4(5H)-yl)methyl)-4′-(methylcarbamoyl)-[1,1′-biphenyl]-2-carboxylic acid], the 50% inhibitory concentration (IC50) lay in the range of 1000 to 10000 nM. As for `Cc1ccc(C(=O)N[C@H]2CC[C@H](CN3C(=O)c4ccc(Cl)cc4NC(=O)[C@H]3Cc3ccccn3)CC2)nc1` [Example 25a, N-((1R,4r)-4-(((R)-8-Chloro-2,5-dioxo-3-(pyridin-2-ylmethyl)-2,3-dihydro-1H-benzo[e][1,4]diazepin-4(5H)-yl)methyl)cyclohexyl)-5-methylpicolinamide], the IC50 fell in the range of 100 to 999 nM. On the same count and under the same terms, next, `Cc1cnc(NC(=O)c2ccc(CN3C(=O)c4ccc(Cl)cc4NC(=O)[C@H]3Cc3ccccn3)s2)nc1` [Example 5s, (R)-5-((8-chloro-2,5-dioxo-3-(pyridin-2-ylmethyl)-2,3-dihydro-1H-benzo[e][1,4]diazepin-4(5H)-yl)methyl)-N-(5-methylpyrimidin-2-yl)thiophene-2-carboxamide]: 100 to 999 nM. Consider `COc1cc(CN2C(=O)c3ccc(Cl)cc3NC(=O)[C@H]2Cc2ccccn2)ccc1C(=O)c1ccccn1` [Example 11j, (R)-8-chloro-4-(3-methoxy-4-picolinoylbenzyl)-3-(pyridin-2-ylmethyl)-3,4-dihydro-1H-benzo[e][1,4]diazepine-2,5-dione], for which the IC50 is under 100 nM. In the case of `O=C(O)c1ccc(CN2C(=O)c3ccc(Cl)cc3NC(=O)[C@H]2Cc2ccccn2)cc1-c1ccncc1` [Example 8a, (R)-4-((8-Chloro-2,5-dioxo-3-(pyridin-2-ylmethyl)-2,3-dihydro-1H-benzo[e][1,4]diazepin-4(5H)-yl)methyl)-2-(pyridin-4-yl)benzoic Acid], the IC50 lay in the range of 100 to 999 nM. Turning to `O=C(O)c1ccc(CN2C(=O)c3ccc([N+](=O)[O-])cc3NC(=O)[C@H]2Cc2cccnc2)cc1` [Example 2i], the IC50 was 1000 to 10000 nM. `CN1CCN(c2ccc(NC(=O)c3ccc(CN4C(=O)c5ccc(Cl)cc5NC(=O)[C@H]4Cc4ccccn4)cc3)nc2)CC1` [Example 4ax, (R)-4-((8-chloro-2,5-dioxo-3-(pyridin-2-ylmethyl)-2,3-dihydro-1H-benzo[e][1,4]diazepin-4(5H)-yl)methyl)-N-(5-(4-methylpiperazin-1-yl)pyridin-2-yl)benzamide]: the IC50 is under 100 nM. As for `C[C@@H]1C(=O)Nc2cc(Cl)ccc2C(=O)N1Cc1ccc(C(=O)Nc2ccccn2)cc1` [Example 4z, (R)-4-((8-chloro-3-methyl-2,5-dioxo-2,3-dihydro-1H-benzo[e][1,4]diazepin-4(5H)-yl)methyl)-N-(pyridin-2-yl)benzamide], the IC50 is under 100 nM. Turning to `O=C(O)c1ccc(CN2C(=O)c3ccc(F)cc3NC(=O)[C@H]2Cc2ccc(Cl)c(Cl)c2)cc1` [Example 2g], the IC50 was 1000 to 10000 nM. Still for that read-out and setting: next, `Cc1ccc(NC(=O)c2ccc(CN3C(=O)c4ccc(Cl)cc4NC(=O)[C@H]3CCN3CCC(O)CC3)cc2)nc1` [Example 10c, (R)-4-((8-chloro-3-(2-(4-hydroxypiperidin-1-yl)ethyl)-2,5-dioxo-2,3-dihydro-1H-benzo[e][1,4]diazepin-4(5H)-yl)methyl)-N-(5-methylpyridin-2-yl)benzamide]: 1000 to 10000 nM. Still for that read-out and setting: next, `O=C(O)c1ccc(CN2C(=O)c3ccc(Cl)cc3NC(=O)[C@H]2Cc2ccccn2)s1` [Example 1h]: 100 to 999 nM; `O=C(c1ccccn1)c1ccc(CN2C(=O)c3ccc(Cl)cc3NC(=O)[C@H]2Cc2ccccn2)cc1F` [Example 11f, (R)-8-chloro-4-(3-fluoro-4-picolinoylbenzyl)-3-(pyridin-2-ylmethyl)-3,4-dihydro-1H-benzo[e][1,4]diazepine-2,5-dione]: under 100 nM. The same measure, in the same setting: next, `N#Cc1cccc(C[C@@H]2C(=O)Nc3cc(Cl)ccc3C(=O)N2Cc2ccc(C(=O)Nc3ccccn3)cc2)c1` [Example 4ak, (R)-4-((8-chloro-3-(3-cyanobenzyl)-2,5-dioxo-2,3-dihydro-1H-benzo[e][1,4]diazepin-4(5H)-yl)methyl)-N-(pyridin-2-yl)benzamide]: under 100 nM; `Cc1ccccc1C[C@@H]1C(=O)Nc2cc(Cl)ccc2C(=O)N1Cc1ccc(C(=O)Nc2ccccn2)cc1` [Example 4ai, (R)-4-((8-chloro-3-(2-methylbenzyl)-2,5-dioxo-2,3-dihydro-1H-benzo[e][1,4]diazepin-4(5H)-yl)methyl)-N-(pyridin-2-yl)benzamide]: under 100 nM; `COc1ccc(NC(=O)c2ccc(S(=O)(=O)N3Cc4ccc(Cl)cc4NC(=O)[C@@H]3Cc3ccccn3)cc2)nc1` [Example 19d, (S)-4-((8-chloro-2-oxo-3-(pyridin-2-ylmethyl)-2,3-dihydro-1H-benzo[e][1,4]diazepin-4(5H)-yl)sulfonyl)-N-(5-methoxypyridin-2-yl)benzamide]: 100 to 999 nM.

For the compound `COc1ccc2c(c1)NC(=O)[C@@H](Cc1cccnc1)N(Cc1ccc(C(=O)O)cc1)C2=O` [Example 2e], the IC50 is 1000 to 10000 nM. As to `O=C(O)c1ccc(CN2C(=O)c3ccc(Cl)cc3NC(=O)[C@@H]2Cc2ccccn2)cc1` [Example 1f], the IC50 was in the range of 100 to 999 nM. Same read-out and setting: next, `O=C(Nc1ccc(CN2C(=O)c3ccc(Cl)cc3NC(=O)[C@H]2Cc2ccccn2)cc1)c1cc(Cl)ccn1` [Example 26h]: 100 to 999 nM; `Cc1cc(CN2C(=O)c3ccc(Cl)cc3NC(=O)[C@H]2Cc2ccccn2)ccc1C(=O)Nc1ccc(C#N)cn1` [Example 5at, (R)-4-((8-chloro-2,5-dioxo-3-(pyridin-2-ylmethyl)-2,3-dihydro-1H-benzo[e][1,4]diazepin-4(5H)-yl)methyl)-N-(5-cyanopyridin-2-yl)-2-methylbenzamide]: under 100 nM. As for `O=C1Nc2cc(Cl)ccc2C(=O)N(C[C@H]2CC[C@H](C(=O)O)CC2)[C@@H]1Cc1ccccn1` [Example 1j], the IC50 is 10000 to 35000 nM. `Cc1cc(CN2C(=O)c3ccc(Cl)cc3NC(=O)[C@H]2Cc2ccccn2)ccc1C(=O)c1ccccn1` [Example 11h, (R)-8-chloro-4-(3-methyl-4-picolinoylbenzyl)-3-(pyridin-2-ylmethyl)-3,4-dihydro-1H-benzo[e][1,4]diazepine-2,5-dione]: the IC50 was under 100 nM. On to `COc1cc(CN2C(=O)c3ccc(Cl)cc3NC(=O)[C@H]2Cc2ccccn2)ccc1C(=O)Nc1ccc(F)cn1` [Example 5aq, (R)-4-((8-chloro-2,5-dioxo-3-(pyridin-2-ylmethyl)-2,3-dihydro-1H-benzo[e][1,4]diazepin-4(5H)-yl)methyl)-N-(5-fluoropyridin-2-yl)-2-methoxybenzamide], for which the IC50 is under 100 nM.

Take `Cc1ccc(C[C@@H]2C(=O)Nc3cc(Cl)ccc3C(=O)N2Cc2ccc(C(=O)Nc3ccccn3)cc2)cc1` [Example 4co, (R)-4-((8-chloro-3-(4-methylbenzyl)-2,5-dioxo-2,3-dihydro-1H-benzo[e][1,4]diazepin-4(5H)-yl)methyl)-N-(pyridin-2-yl)benzamide]: the half-maximal inhibitory concentration (IC50) was in the range of 100 to 999 nM. Turning to `O=C(O)c1ccc(CN2C(=O)c3ccc(Cl)cc3NC(=O)[C@@H]2Cc2ccc(O)cc2)cc1` [Example 2c], the IC50 lay in the range of 10000 to 35000 nM.

Turning to `O=C(Nc1ccc(N2CCOCC2)cn1)c1ccc(CN2C(=O)c3ccc(Cl)cc3NC(=O)[C@H]2Cc2ccccn2)cc1` [Example 4av, (R)-4-((8-chloro-2,5-dioxo-3-(pyridin-2-ylmethyl)-2,3-dihydro-1H-benzo[e][1,4]diazepin-4(5H)-yl)methyl)-N-(5-morpholinopyridin-2-yl)benzamide], the IC50 is under 100 nM. Turning to `NC(=O)c1ccc(CN2C(=O)c3ccc(Cl)cc3NC(=O)[C@@H]2Cc2ccc(Cl)c(Cl)c2)cc1` [Example 13a, (S)-4-((8-Chloro-3-(3,4-dichlorobenzyl)-2,5-dioxo-2,3-dihydro-1H-benzo[e][1,4]diazepin-4(5H)-yl)methyl)benzamide], the IC50 was in the range of 10000 to 35000 nM. Turning to `O=C(Nc1ccccn1)c1ccc(CN2C(=O)c3ccc(C(F)(F)F)cc3NC(=O)[C@H]2Cc2ccc(Cl)c(Cl)c2)cc1` [Example 35f], the IC50 was 1000 to 10000 nM. The same measure, in the same setting: next, `O=C(Nc1cc(CN2C(=O)c3ccc(Cl)cc3NC(=O)[C@H]2Cc2ccccn2)ccc1C(=O)O)c1ccncc1` [Example 22f]: 1000 to 10000 nM; `COc1cnc(NC(=O)c2ccc(CN3C(=O)c4ccc(Cl)cc4NC(=O)[C@H]3C)cc2)nc1` [Example 4be, (R)-4-((8-chloro-3-methyl-2,5-dioxo-2,3-dihydro-1H-benzo[e][1,4]diazepin-4(5H)-yl)methyl)-N-(5-methoxypyrimidin-2-yl)benzamide]: under 100 nM.

Staying with this experiment, now noted: read-out: TcdB UDP-Glucose hydrolysis activity (IC50, coded); UDP-Glucose hydrolysis assay, fluorescence polarization.
Take `COc1ccc(NC(=O)C2CCC(CN3C(=O)c4ccc(Cl)cc4NC(=O)[C@H]3Cc3ccccn3)CC2)nc1` (stereo partly drawn) [Example 4bz, (1R,4r)-4-(((R)-8-chloro-2,5-dioxo-3-(pyridin-2-ylmethyl)-2,3-dihydro-1H-benzo[e][1,4]diazepin-4(5H)-yl)methyl)-N-(5-methoxypyridin-2-yl)cyclohexanecarboxamide]: the IC50 was under 100 nM.

The IC50 is the point on the concentration scale where inhibition reaches its midpoint.
